Reference: patent publication US7723339B2, “Combination comprising a signal transduction inhibitor and an epothilone derivative” (Novartis AG, priority 2001, dated 2010)

How the values were obtained:
[1] = system: rat C6 glioma tumor xenografts; test: Rat C6 glioma tumor xenografts in female BALB/C mice; assay type: in vivo; details: for Delta tumor volumes (mean mm^3±SEM): q7d (i.v., days 3 and 10) alone, control 1289±178
Procedure: STI571 Alone, Epothilone B (EPO906) Alone and the Combination of STI571 Plus Epothilone B Versus Rat C6 Glioma Tumor Xenografts in Female BALB/C Mice
Tumors are initiated by the s.c. injection of 1×10^6 rat C6 cells (n=8/group). When the tumors reaches ˜75 mm^3, STI571 treatment is begun at 200 mg/kg, p.o., q24h.

[2] = system: KAT-4 mouse thyroid carcinoma; test: KAT-4 thyroid carcinoma tumors in SCID mice; assay type: in vivo; details: for effect on tumor growth: STI571 100 mg/kg gavage once daily from day 3, EPO906 0.3 mg/kg s.c. days 6, 13, 20
Procedure: Study on the Effects of Combining Epothilone B Treatment of KAT-4 Mouse Thyroid Carcinoma with Treatment with STI571
Epothilone B is administered s.c. once weekly. STI571, at a dose of 100 mg/kg, is administered by gavage and given once daily. Tumor volume is determined by mesurements with calipers.
In the study four groups of tumor bearing mice are analyzed: control treated mice, mice treated with either STI571 (100 mg/kg) or 0.3 mg/kg of EPO906 alone and mice treated with both drugs. Treatment is performed on mice with an average starting size of tumor of approximatly 100 mm^3. EPO906 is given at days 6, 13 and 20 and STI571 is given once daily from day 3.

Row | Structure (SMILES) | Delta tumor volumes (mean mm^3±SEM) ([1]; EPO906 1 mg/kg) [mm^3] | Delta tumor volumes (mean mm^3±SEM) ([1]; EPO906 2 mg/kg) [mm^3] | Delta tumor volume ratio treated/controls ([1]; STI571 200 mg/kg p.o. q24h, EPO906 2 mg/kg q7d) | effect on tumor growth [2] | final tumor size as % of control tumors ([2]; end of experiment, STI571 100 mg/kg once daily, EPO906 0.3 mg/kg once weekly) [%]
1 | C/C(=C\c1csc(C)n1)[C@@H]1C[C@@H]2O[C@]2(C)CCC[C@H](C)[C@H](O)[C@@H](C)C(=O)C(C)(C)[C@@H](O)CC(=O)O1 [EPO906, epothilone B] | 864±115 | 419±116 | 0.325 | statistically significant reduction of tumor growth | 69
2 | Cc1ccc(NC(=O)c2ccc(CN3CCN(C)CC3)cc2)cc1Nc1nccc(-c2cccnc2)n1 [STI571, N-{5-[4-(4-methyl-piperazino-methyl)-benzoylamido]-2-methylphenyl}-4-(3-pyridyl)-2-pyrimidine-amine] |  |  |  | no effect | 
